Reference: article PMC8468421, “Synthesis and Biological Evaluation of 1,2,3-Triazole Tethered Thymol-1,3,4-Oxadiazole Derivatives as Anticancer and Antimicrobial Agents” (Pharmaceuticals, 2021)

Legend:
HepG2 = assay: Antiproliferative activity, MTT assay, HepG2; details: for IC50: Homo sapiens, HepG2, read-out: Cytotoxicity IC50 HepG2
Text: (§1) The compounds were screened on breast (MCF-7), liver (HepG2), and colorectal (HCT-116) cancer cells, obtained from American Type culture Collection (ATCC); 0.1% of DMSO was used as a vehicle control.

MCF-7 = assay: Antiproliferative activity, MTT assay, MCF-7; details: for IC50: Homo sapiens, MCF7, read-out: Cytotoxicity IC50 MCF-7; for times active relative to 5-florouracil, MCF-7: (IC50 18.74 μM)
Text: as §1

HCT-116 = assay: Antiproliferative activity, MTT assay, HCT-116; details: Homo sapiens, HCT-116, read-out: Cytotoxicity IC50 HCT-116
Text: as §1

[1] = biological target: Thymidylate synthase (TS) (Homo sapiens, UniProt P04818); assay: Thymidylate synthase (TS) enzymatic assay
Thymidylate synthase (TS), sequence (P04818 whole entry): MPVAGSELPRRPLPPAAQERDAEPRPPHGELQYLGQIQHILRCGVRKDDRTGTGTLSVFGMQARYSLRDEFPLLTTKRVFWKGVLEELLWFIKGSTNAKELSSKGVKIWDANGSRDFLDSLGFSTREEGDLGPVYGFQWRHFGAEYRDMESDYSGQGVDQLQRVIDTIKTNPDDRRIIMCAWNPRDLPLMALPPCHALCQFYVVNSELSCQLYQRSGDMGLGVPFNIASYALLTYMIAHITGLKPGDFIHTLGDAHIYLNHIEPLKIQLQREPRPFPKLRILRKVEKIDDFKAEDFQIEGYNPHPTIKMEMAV

E. coli (ATCC 31218) = assay: Antimicrobial activity, agar well zone of inhibition, E. coli; assay type: cell-based, Escherichia coli; details: 10 μL of 10 mg/mL in 50% DMSO per well, overnight 37 °C, --- = no zone of inhibition; for zone of inhibition at 10000 µg/mL: Escherichia coli, ATCC31218
Experimental: (§2) The antimicrobial activity of the final compounds was performed by reported methods.The bacterial strains, E. coli (Gram negative), S. aureus (Gram positive), and fungi, Candida albicans, were used for the study. Luria broth Agar and Sabouraud Dextrose Agar were prepared into a petri dish using 25 mL of autoclaved media; 100 μL of diluted broth of freshly prepared E. coli, S. aureus, and C. albicans were spread on Luria Broth Agar and Sabouraud Agar plates, respectively. Then, 7 wells of 50 μL capacity were punched on each plate. Samples 5–18 (10 μL of 10 mg/mL standard prepared in 50% DMSO) were placed in each plate’s well in different plate sets. All the plates were incubated for overnight at 37 °C in an incubator shaker. The inhibition zone was calculated in triplicate.

S. aureus (ATCC 29213) = assay: Antimicrobial activity, agar well zone of inhibition, S. aureus; assay type: cell-based, Staphylococcus aureus; details: 10 μL of 10 mg/mL in 50% DMSO per well, overnight 37 °C, --- = no zone of inhibition; for zone of inhibition at 10000 µg/mL: Staphylococcus aureus, ATCC29213
Experimental: as §2

C. albicans (ATCC 10231) = assay: Antifungal activity, agar well zone of inhibition, C. albicans; assay type: cell-based, Candida albicans; details: 10 μL of 10 mg/mL in 50% DMSO per well, overnight 37 °C, --- = no zone of inhibition; for zone of inhibition at 10000 µg/mL: Candida albicans, ATCC10231
Experimental: as §2

Compound	IC50 (HepG2) [µM]	melting point [°C]	IC50 (MCF-7) [µM]	IC50 (HCT-116) [µM]	IC50 [1] [µM]	times active relative to 5-florouracil, MCF-7 (MCF-7) [times]	zone of inhibition E. coli (E. coli (ATCC 31218)) [mm]	zone of inhibition at 10000 µg/mL (E. coli (ATCC 31218)) [mm]	zone of inhibition S. aureus (S. aureus (ATCC 29213)) [mm]	zone of inhibition at 10000 µg/mL (S. aureus (ATCC 29213)) [mm]	fold active relative to 5-FU, HepG2 (HepG2) [fold]	zone of inhibition at 10000 µg/mL (C. albicans (ATCC 10231)) [mm]	zone of inhibition C. albicans (C. albicans (ATCC 10231)) [mm]
Cc1ccc(C(C)C)c(OCc2nnc(SCc3cn(-c4ccc(F)cc4)nn3)o2)c1 [Compound 15, 4-((5-((2-isopropyl-5-methylphenoxy)methyl)-1,3,4-oxadiazol-2-ylthio)methyl)-1-(4-florophenyl)-1H-1,2,3-triazole]	49.2	118 to 120	23.2	31.4									
Cc1ccc(C(C)C)c(OCc2nnc(SCc3cn(-c4ccccc4Cl)nn3)o2)c1 [Compound 10, 4-((5-((2-isopropyl-5-methylphenoxy)methyl)-1,3,4-oxadiazol-2-ylthio)methyl)-1-(2-chlorophenyl)-1H-1,2,3-triazole]	2.5	90 to 92	1.3	3.8	2.18 ± 1.7	15							
Cc1ccc(C(C)C)c(OCc2nnc(SCc3cn(-c4ccc(F)cc4F)nn3)o2)c1 [Compound 16, 4-((5-((2-isopropyl-5-methylphenoxy)methyl)-1,3,4-oxadiazol-2-ylthio)methyl)-1-(2,4-diflorophenyl)-1H-1,2,3-triazole]	58.3	130 to 132	34.5	56.2			14 ± 0.34	14	15±0.38	15			
CO[C@@H]1[C@@H](OC(N)=O)[C@@H](O)[C@H](Oc2ccc3c(O)c(NC(=O)c4ccc(O)c(CC=C(C)C)c4)c(=O)oc3c2C)OC1(C)C [Novobiocin, reference compound]										10 ± 0.24			
COc1ccccc1-n1cc(CSc2nnc(COc3cc(C)ccc3C(C)C)o2)nn1 [Compound 7, 4-((5-((2-isopropyl-5-methylphenoxy)methyl)-1,3,4-oxadiazol-2-ylthio)methyl)-1-(2-methoxyphenyl)-1H-1,2,3-triazole]	1.8	81 to 83	2.4	3.1	3.52 ± 1.2		12 ± 0.34	12	12 ± 0.34	12	16		
Cc1ccc(C(C)C)c(OCc2nnc(SCc3cn(-c4cccc(Cl)c4)nn3)o2)c1 [Compound 11, 4-((5-((2-isopropyl-5-methylphenoxy)methyl)-1,3,4-oxadiazol-2-ylthio)methyl)-1-(3-chlorophenyl)-1H-1,2,3-triazole]	18.6	92 to 94	4.9	16.3	4.24 ± 0.8								
Cc1ccc(C(C)C)c(OCc2nnc(SCc3cn(C(=O)Nc4ccccc4C)nn3)o2)c1 [Compound 17, 4-((5-((2-isopropyl-5-methylphenoxy)methyl)-1,3,4-oxadiazol-2-ylthio)methyl)-N-o-tolyl-1H-1,2,3-triazole-1-carboxamide]	39.1	124 to 126	9.39	17.3			12 ± 0.32	12	12 ± 0.34	12			
COc1cccc2c1C(=O)c1c(O)c3c(c(O)c1C2=O)C[C@@](O)(C(=O)CO)C[C@@H]3O[C@H]1C[C@H](N)[C@H](O)[C@H](C)O1 [Dox, doxorubicin, reference compound]	1.8		1.2	2.5									
Cc1ccc(C(C)C)c(OCc2nnc(SCc3cn(-c4cccc(Br)c4)nn3)o2)c1 [Compound 14, 4-((5-((2-isopropyl-5-methylphenoxy)methyl)-1,3,4-oxadiazol-2-ylthio)methyl)-1-(3-bromophenyl)-1H-1,2,3-triazole]	23.7	72 to 74	41.8	32.8			9 ± 0.32	9					
OC(Cn1cncn1)(Cn1cncn1)c1ccc(F)cc1F [Fluconazole, reference compound]												16 ± 0.6	
Cc1ccc(C(C)C)c(OCc2nnc(SCc3cn(-c4ccccc4)nn3)o2)c1 [Compound 6, 4-((5-((2-isopropyl-5-methylphenoxy)methyl)-1,3,4-oxadiazol-2-ylthio)methyl)-1-phenyl-1H-1,2,3-triazole]	41.6	88 to 90	22.5	36.5			14 ± 0.38	14	10 ± 0.40	10			
Cc1ccc(C(C)C)c(OCc2nnc(SCc3cn(-c4ccc(Cl)cc4Cl)nn3)o2)c1 [Compound 12, 4-((5-((2-isopropyl-5-methylphenoxy)methyl)-1,3,4-oxadiazol-2-ylthio)methyl)-1-(2,4-dichlorophenyl)-1H-1,2,3-triazole]	40.6	84 to 86	59.4	47.3			10 ± 0.38	10				12	12 ± 0.036
C#CCSc1nnc(COc2cc(C)ccc2C(C)C)o1 [Compound 5, 2-((2-isopropyl-5-methylphenoxy)methyl)-5-(prop-2-ynylthio)-1,3,4-oxadiazole]		58 to 60					12 ± 0.32	12	9 ± 0.30	9		10	10 ± 0.32
Cc1ccc(C(C)C)c(OCc2nnc(SCc3cn(-c4ccc(Br)cc4)nn3)o2)c1 [Compound 13, 4-((5-((2-isopropyl-5-methylphenoxy)methyl)-1,3,4-oxadiazol-2-ylthio)methyl)-1-(4-bromophenyl)-1H-1,2,3-triazole]	69.4	114 to 116	65.3	78.7			11 ± 0.34	11					
Nc1nc2[nH]cc(CCc3ccc(C(=O)N[C@@H](CCC(=O)O)C(=O)O)cc3)c2c(=O)[nH]1 [Pemetrexed, reference compound]					7.26 ± 1.1								
Cc1ccc(C(C)C)c(OCc2nnc(S(=O)(=O)Cc3cn(-c4cccc(Br)c4)nn3)o2)c1 [Compound 18, 4-((5-((2-isopropyl-5-methylphenoxy)methyl)-1,3,4-oxadiazol-2-ylsulfonyl)methyl)-1-(3-bromophenyl)-1H-1,2,3-triazole]	95.7	98 to 100	98.2	118									
Cc1ccc(C(C)C)c(OCc2nnc(SCc3cn(-c4cccc(C(=O)O)c4)nn3)o2)c1 [Compound 8, 3-(4-((5-((2-isopropyl-5-methylphenoxy)methyl)-1,3,4-oxadiazol-2-ylthio)methyl)-1H-1,2,3-triazol-1-yl)benzoic acid]	5.3	166 to 168	3.9	5.8	3.98 ± 1.1				10 ± 0.40	10			
O=c1[nH]cc(F)c(=O)[nH]1 [Compound 5-FU, 5-fluorouracil, reference compound]	28.7		18.7	30.7									
Cc1ccc(C(C)C)c(OCc2nnc(SCc3cn(-c4ccccc4O)nn3)o2)c1 [Compound 9, 2-(4-((5-((2-isopropyl-5-methylphenoxy)methyl)-1,3,4-oxadiazol-2-ylthio)methyl)-1H-1,2,3-triazol-1-yl)phenol]	1.4	86 to 88	1.1	2.6	1.95 ± 0.9	17	12 ± 0.36	12	12 ± 0.34	12	20	10	10 ± 0.032
